# Test results published in paper PMC9676650, “Binding pocket stabilization by high-throughput screening of yeast display libraries” (Frontiers in Molecular Biosciences, 2022).
# Numbering of substitutions follows the chain as printed.
# What was measured:
# FKBP51 WT = molecular target: T1, FKBP51 WT (Homo sapiens, UniProt Q13451); assay: Competitive fluorescence polarization assay, FKBP51 WT; details: 20 nM FKBP51 WT; 1 nM FK [431]-TA tracer; 30 min room temperature; fitted as KI in competitive binding model; read-out: Kd-value (ligand binding constant, competitive fluorescence polarization)
# T1 construct: made in house; host or cells: E. coli BL21 (DE3)
# T1 sequence (Q13451 1-140): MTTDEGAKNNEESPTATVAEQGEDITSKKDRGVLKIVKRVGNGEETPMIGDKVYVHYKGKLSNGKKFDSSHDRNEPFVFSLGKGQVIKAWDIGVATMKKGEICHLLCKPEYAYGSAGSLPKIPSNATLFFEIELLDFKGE
# Source text: (§1) All ligands and tracers used for fluorescence polarization assays had purities of more than 95%. The following ligands and tracers were used for fluorescence polarization and FACS screening experiments: •SAFit-FL tracer (1): Fluorescein conjugated analog of the iFit ligand class. •Mcyc-TA tracer (2): TAMRA conjugated macrocyclic ligand (5). •FK [431]-TA tracer (3): TAMRA conjugated FK [431] ligand (6). •SAFit1 ligand (4): analog of the iFit ligand class. •macrocyclic ligand (5):macrocyclic analog of the SAFit class ligands. •FK [431] ligand (6):bicyclic analog of the immunosuppressive drug FK506
# (§2) In order to rule out artifacts introduced by the fluorophore of the tracers, competitive fluorescence polarization assays were carried out. Therefore, a serial dilution of an FK [431] ligand (6), SAFit1 (4), or a macrocyclic ligand 5) (Supplementary Figure S8) in assay buffer was placed in a 384-well assay plate. To the compounds, a mixture of the respective protein (20 nM WT, 10–40 nM G64S or 80–100 nM D68Y) and 1 nM of the FK [431]-TA in assay buffer was added. After incubating for 30 min at room temperature, the fluorescence polarization was measured. […]
# FKBP51 variant G64S = molecular target: T2, FKBP51 variant G64S (Homo sapiens, UniProt Q13451, G64S); assay: Competitive fluorescence polarization assay, FKBP51 G64S; details: 10-40 nM FKBP51 G64S; 1 nM FK [431]-TA tracer; 30 min room temperature; fitted as KI in competitive binding model; read-out: Kd-value (ligand binding constant, competitive fluorescence polarization)
# T2 construct: made in house; host or cells: E. coli BL21 (DE3)
# T2 sequence (Q13451 1-140 G64S): T1 sequence (Q13451 1-140) with G64S
# Source text: as §1, §2
# FKBP51 variant D68Y = molecular target: T3, FKBP51 variant D68Y (Homo sapiens, UniProt Q13451, D68Y); assay: Competitive fluorescence polarization assay, FKBP51 D68Y; details: 80-100 nM FKBP51 D68Y; 1 nM FK [431]-TA tracer; 30 min room temperature; fitted as KI in competitive binding model; read-out: Kd-value (ligand binding constant, competitive fluorescence polarization)
# T3 construct: made in house; host or cells: E. coli BL21 (DE3)
# T3 sequence (Q13451 1-140 D68Y): T1 sequence (Q13451 1-140) with D68Y
# Source text: as §1, §2
smiles,measurement,setting,value
COc1ccc(CC[C@@H](OC(=O)[C@@H]2CCCCN2C(=O)[C@H](c2cc(OC)c(OC)c(OC)c2)C2CCCCC2)c2cccc(OCC(=O)O)c2)cc1OC [SAFit1],Kd,FKBP51 WT,4.8 ± 0.4 nM
same,Kd,FKBP51 variant G64S,0.5 ± 0.2 nM
same,Kd,FKBP51 variant D68Y,0.2 ± 0.5 nM
